We go through 21 molecules from patent publication US20260199369A1, “COMPOUNDS FOR THE TREATMENT OF NEUROMUSCULAR DISORDERS” (NMD PHARMA A/S, priority 2022, published 2026).

Assay [1] deals with isolated rat soleus muscles. Nature of the assay: Measurement of force in an in vitro model: recovery of contractile force of isolated rat soleus nerve-muscle preparation after tubocurarine. The settings on record: 40 min, read-out: Point increase (%): percentage increase of initial force that was restored; for activation at 50 µM: 50 μM of test compound. The procedure: The current disclosure relates to compounds that inhibit CIC-1 ion channels and increase muscle excitability and thereby improve muscle function in clinical conditions where muscle activation is failing. Such conditions result in loss of contractile function of skeletal muscle, weakness and excessive fatigue. In this series of experiments the compounds were tested for their ability to restore contractile function of isolated rat muscle when the neuromuscular transmission had been compromised akin to neuromuscular disorders.
Experimentally, soleus muscles from 4-5 wk old rats were isolated with the motor nerve remaining attached. The nerve-muscle preparations were mounted in experimental setups that enabled electrical stimulation of the motor nerve. Stimulation of the motor nerve led to activation of the muscle fibres and ensuing force production that was recorded. The nerve-muscle preparations were also in these experiments incubated in the standard Krebs Ringer (see example 15) and the solution was heated to 30° C. and continuously equilibrated with a mixture of 95% O2 and 5% CO2, pH ~7.4.
After mounting the nerve-muscle preparation in the experimental setup, the contractile function of the muscle was initially assessed under the control conditions. Sub-maximal concentration of tubocurarine (115 nM), an acetylcholine receptor antagonist, was then added to the experimental bath to impose partial inhibition of the ability of the motor nerve to activate the muscle fibres. The experimental condition mimics the failing neuromuscular transmission in a range of neuromuscular disorders. After addition of tubocurarine the contractile force declined over the next 90 minutes to 10-50% of the control force. The test compound was then added to obtain the required compound concentration in the bath and the contractile force recovered was measured. To quantify the ability of the compound to restore force the percentage of the initial force that was restored was determined after 40 mins of compound exposure and the point increase is reported in Tables 3 to 7.

The next assay has as its target T1, CIC-1 ion channel (Rattus norvegicus, UniProt P35524).
T1 construct: from tissue; host or cells: whole soleus muscle of 12-14 week old Wistar rats
T1 sequence (P35524 1-994): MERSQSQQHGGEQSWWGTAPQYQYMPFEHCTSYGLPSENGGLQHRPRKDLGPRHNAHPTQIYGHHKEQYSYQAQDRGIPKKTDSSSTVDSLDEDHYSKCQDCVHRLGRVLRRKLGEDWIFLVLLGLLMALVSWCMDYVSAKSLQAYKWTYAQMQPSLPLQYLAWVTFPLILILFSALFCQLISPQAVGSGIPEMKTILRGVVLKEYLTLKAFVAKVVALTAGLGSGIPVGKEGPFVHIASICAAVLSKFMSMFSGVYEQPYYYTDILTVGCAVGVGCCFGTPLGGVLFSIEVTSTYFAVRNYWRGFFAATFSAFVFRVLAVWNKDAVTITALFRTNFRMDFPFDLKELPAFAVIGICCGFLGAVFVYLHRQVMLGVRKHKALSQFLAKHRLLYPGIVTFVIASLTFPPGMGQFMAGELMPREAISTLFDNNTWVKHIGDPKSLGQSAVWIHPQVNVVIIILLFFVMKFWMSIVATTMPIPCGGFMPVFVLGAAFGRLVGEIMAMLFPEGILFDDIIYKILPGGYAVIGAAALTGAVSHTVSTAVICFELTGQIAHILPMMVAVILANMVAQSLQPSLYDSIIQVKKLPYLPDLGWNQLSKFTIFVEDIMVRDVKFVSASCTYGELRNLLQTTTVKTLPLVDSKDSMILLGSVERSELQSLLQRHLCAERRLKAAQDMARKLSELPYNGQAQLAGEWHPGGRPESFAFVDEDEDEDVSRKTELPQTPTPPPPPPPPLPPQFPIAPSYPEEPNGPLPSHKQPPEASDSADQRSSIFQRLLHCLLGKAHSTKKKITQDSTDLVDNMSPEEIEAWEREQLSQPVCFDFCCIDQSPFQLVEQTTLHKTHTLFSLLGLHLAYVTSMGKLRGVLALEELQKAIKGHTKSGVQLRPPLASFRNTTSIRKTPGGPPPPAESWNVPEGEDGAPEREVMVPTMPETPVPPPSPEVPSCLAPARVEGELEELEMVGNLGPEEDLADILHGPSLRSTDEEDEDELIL
Kind of assay: Electrophysiological measurement of compound inhibition of CIC-1 in rat muscle (Gm, three micro-electrodes technique). Format: cell-based. Conditions: Gm in fibres of whole rat soleus muscle, four increasing compound concentrations; read-out: Potency Range (EC50, inhibition of CIC-1 ion channel). The procedure: Apparent CIC-1 affinity was reported by the concentration of compound at which 50% of the compound's full inhibition of CIC-1 was observed (EC50) (see also WO2019/115777).
Experimentally, Gm was measured in individual fibres of whole rat soleus muscles using a three micro-electrodes technique described in this example and in full detail elsewhere (Riisager et al., Determination of cable parameters in skeletal muscle fibres during repetitive firing of action potentials. Journal of Physiology, 2014, 592, 4417-4429). Briefly, intact rat soleus muscles were dissected out from 12-14 week old Wistar rats and placed in an experimental chamber that was perfused with a standard Krebs Ringer solution containing 122 mM NaCl, 25 mM NaHCO3, 2.8 mM KCl, 1.2 mM KH2PO4, 1.2 mM MgSO4, 1.3 mM CaCl2), 5.0 mM D-glucose. During experiments, the solution was kept at approx. 30° C. and continuously equilibrated with a mixture of 95% O2 and 5% CO2, pH ~7.4. The experimental chamber was placed in Nikon upright microscope that was used to visualize individual muscle fibres and the three electrodes (glass pipettes filled with 2 M potassium citrate). For Gm measurements, the electrodes were inserted into the same fibre with known inter-electrode distances of 0.35-0.5 mm (V1-V2, X1) and 1.1-1.5 mm (V1-V3, X3). The membrane potential of the impaled muscle fibre was recorded by all electrodes. Two of the electrodes were furthermore used to inject 50 ms current pulses of −30 nA. […] The steady state voltage deflection at each distance was divided by the magnitude of current injected (−30 nA) and the resulting transfer resistances were plotted against inter-electrode distance and the data was fitted to a mono-exponential function from which Gm could be calculated using linear cable theory.
To establish a dose response relationship, Gm was first determined in 10 muscle fibres in the absence of compound and then at four increasing compound concentrations with Gm determinations in 5-10 fibres at each concentration. The average Gm values at each concentration were plotted against compound concentration and the data was fitted to sigmoidal function to obtain an EC50 value.

Setting [2] is: tubocurarine 115 nM, after 40 mins of compound exposure.
[3] abbreviates: 10 μM of test compound, tubocurarine 115 nM, after 40 mins of compound exposure.
Setting [4] is: 25 μM of test compound, tubocurarine 115 nM, after 40 mins of compound exposure.

Like-named read-outs stand apart in the source and are kept apart here.

What is called EC50 is the concentration that produces a half-maximal response. For the molecule `COc1c(Cl)cc2c(c1C(=O)O)OCCO2` [Compound A-1, 7-Chloro-6-methoxy-2,3-dihydro-1,4-benzodioxine-5-carboxylic acid], the activation at 50 µM in assay [1] (setting [2]) worked out at 31%. Further, the EC50 on CIC-1 ion channel lay within 5000 to 15000 nM.
Take `COc1c(Cl)cc2c(c1C(=O)O)OCCN2C` [Compound A-2, 6-Chloro-7-methoxy-4-methyl-3,4-dihydro-2H-1,4-benzoxazine-8-carboxylic acid]: the activation at 10 µM in assay [1] (setting [3]) is 32%. Besides, the EC50 on CIC-1 ion channel was in the range of 200 to 1000 nM.
For the molecule `CN1CCOc2cc(Cl)c(F)c(C(=O)O)c21` [Compound A-3, 7-Chloro-6-fluoro-4-methyl-3,4-dihydro-2H-1,4-benzoxazine-5-carboxylic acid], the activation at 10 µM in assay [1] came to 41%. Further, the EC50 on CIC-1 ion channel lay within 1000 to 5000 nM.
Regarding `CN1CCOc2c1cc(F)c(Cl)c2C(=O)O` [Compound A-4, 7-Chloro-6-fluoro-4-methyl-3,4-dihydro-2H-1,4-benzoxazine-8-carboxylic acid], the activation at 10 µM in assay [1] (setting [3]) was found to be 36%. For the same molecule, at CIC-1 ion channel, the EC50 is 1000 to 5000 nM.
For the molecule `O=C(O)c1c(F)cc(Cl)c2c1OCCN2` [Compound A-5, 5-Chloro-7-fluoro-3,4-dihydro-2H-1,4-benzoxazine-8-carboxylic acid], the activation at 50 µM in assay [1] (setting [2]) came out at 44%. For the same molecule, the concentration giving a half-maximal response (EC50) on CIC-1 ion channel lay within 5000 to 15000 nM.
As for `O=C(O)c1c(F)c(Cl)cc2c1OCCN2` [Compound A-6, 6-Chloro-7-fluoro-3,4-dihydro-2H-1,4-benzoxazine-8-carboxylic acid], the activation at 10 µM in assay [1] (setting [3]) turned out to be 19%. Moreover, the EC50 on CIC-1 ion channel was 5000 to 15000 nM.
Consider `CN1CCOc2c1cc(Cl)c(F)c2C(=O)O` [Compound A-7, 6-Chloro-7-fluoro-4-methyl-3,4-dihydro-2H-1,4-benzoxazine-8-carboxylic acid], for which the concentration giving a half-maximal response (EC50) at CIC-1 ion channel lay in the range of 200 to 1000 nM.
`CN1CCN(C)c2c1cc(Cl)c(F)c2C(=O)O` [Compound A-8, 7-Chloro-6-fluoro-1,4-dimethyl-1,2,3,4-tetrahydroquinoxaline-5-carboxylic acid]: the activation at 10 µM in assay [1] (setting [3]) was determined as 26%. Moreover, the EC50 on CIC-1 ion channel was in the range of 1000 to 5000 nM.
The corresponding values for `CN1CC(C)(C)Oc2c1cc(Cl)c(F)c2C(=O)O` [Compound A-9, 6-Chloro-7-fluoro-2,2,4-trimethyl-3,4-dihydro-2H-1,4-benzoxazine-8-carboxylic acid] are 37% and 1000 to 5000 nM.
Consider `CN1CCCOc2c1cc(Cl)c(F)c2C(=O)O` [Compound A-13, 7-Chloro-8-fluoro-5-methyl-2,3,4,5-tetrahydro-1,5-benzoxazepine-9-carboxylic acid], for which the activation at 10 µM in assay [1] (setting [3]) stood at 30%. The concentration giving a half-maximal response (EC50) on CIC-1 ion channel is 1000 to 5000 nM.
Consider `CC(C)CCN1CCOc2c1cc(Cl)c(F)c2C(=O)O` [Compound A-17, 6-chloro-7-fluoro-4-(3-methylbutyl)-3,4-dihydro-2H-1,4-benzoxazine-8-carboxylic acid], for which the activation at 50 µM in assay [1] (setting [2]) is 29%. Moreover, the concentration for a half-maximal effect (EC50) at CIC-1 ion channel lay in the range of 5000 to 15000 nM.
As for `CCN1CCOc2c1cc(Cl)c(F)c2C(=O)O` [Compound A-18, 6-Chloro-4-ethyl-7-fluoro-3,4-dihydro-2H-1,4-benzoxazine-8-carboxylic acid], the activation at 10 µM in assay [1] (setting [3]) came to 34%. The EC50 on CIC-1 ion channel lay within 1000 to 5000 nM.
For `CN1CCSc2c1cc(Cl)c(F)c2C(=O)O` [Compound A-19, 6-chloro-7-fluoro-4-methyl-3,4-dihydro-2H-1,4-benzothiazine-8-carboxylic acid], the activation at 10 µM in assay [1] (setting [3]) worked out at 28%. Moreover, the EC50 at CIC-1 ion channel lay within 1000 to 5000 nM.
Take `CCCN1CCOc2c1cc(Cl)c(F)c2C(=O)O` [Compound A-21, 6-Chloro-7-fluoro-4-propyl-3,4-dihydro-2H-1,4-benzoxazine-8-carboxylic acid]: in assay [1] (setting [4]), the activation at 25 µM is 29%. For the same molecule, at CIC-1 ion channel, the EC50 fell in the range of 1000 to 5000 nM.
As for `CCN1CCOc2c1cc(Cl)c(OC)c2C(=O)O` [Compound A-28, 6-Chloro-4-ethyl-7-methoxy-3,4-dihydro-2H-1,4-benzoxazine-8-carboxylic acid], in assay [1], the activation at 25 µM came to 36%. In addition, at CIC-1 ion channel, the EC50 fell in the range of 200 to 1000 nM.
`COc1c(Cl)cc2c(c1C(=O)O)SCCN2C` [Compound A-29, 6-Chloro-7-methoxy-4-methyl-3,4-dihydro-2H-1,4-benzothiazine-8-carboxylic acid]: the activation at 10 µM in assay [1] (setting [3]) was 43%. Moreover, the EC50 on CIC-1 ion channel was in the range of 200 to 1000 nM.
With `COc1c(F)cc2c(c1C(=O)O)OCCN2C` [Compound A-30, 6-Fluoro-7-methoxy-4-methyl-3,4-dihydro-2H-1,4-benzoxazine-8-carboxylic acid], in assay [1], the activation at 10 µM was determined as 39%. Further, the EC50 on CIC-1 ion channel was 200 to 1000 nM.
With `COc1c(Cl)cc2c(c1C(=O)O)OCCN2Cc1ccsc1` [Compound A-36, 6-Chloro-7-methoxy-4-[(thiophen-3-yl)methyl]-3,4-dihydro-2H-1,4-benzoxazine-8-carboxylic acid], the activation at 25 µM in assay [1] (setting [4]) is 36%. Besides, on CIC-1 ion channel, the EC50 fell in the range of 1000 to 5000 nM.
In the case of `O=C(O)c1c(F)c(Cl)cc2c1N(Cc1ccsc1)CCO2` [Compound A-54, 7-Chloro-6-fluoro-4-[(thiophen-3-yl)methyl]-3,4-dihydro-2H-1,4-benzoxazine-5-carboxylic acid], the activation at 10 µM in assay [1] (setting [3]) came out at 28%. Further, the EC50 at CIC-1 ion channel lay within 200 to 1000 nM.
For the molecule `COc1ccc(CN2CCOc3cc(Cl)c(F)c(C(=O)O)c32)cc1` [Compound A-58, 7-Chloro-6-fluoro-4-[(p-methoxyphenyl)methyl]-3,4-dihydro-2H-1,4-benzoxazine-5-carboxylic acid], the activation at 10 µM in assay [1] (setting [3]) is 35%. For the same molecule, the EC50 on CIC-1 ion channel is 200 to 1000 nM.
Take `Cc1ccc(CN2CCOc3cc(Cl)c(F)c(C(=O)O)c32)cc1` [Compound A-60, 7-Chloro-6-fluoro-4-[(p-tolyl)methyl]-3,4-dihydro-2H-1,4-benzoxazine-5-carboxylic acid]: in assay [1] (setting [3]), the activation at 10 µM came out at 17%. For the same molecule, the EC50 at CIC-1 ion channel fell in the range of 200 to 1000 nM.
